The results in this text go back to patent US10781204B2, “TYK2 inhibitors and uses thereof” (Nimbus Lakshmi, Inc., priority 2015, dated 2020).

Experiment [1] relates to JAK2-pSTAT5 (GM-CSF induced pSTAT5). In words: GM-CSF induced pSTAT5 in human PBMC. As to conditions: Homo sapiens, PBMC, 20 min, 5 ng/mL GM-CSF. Format: cell-based. A digest of the protocol:
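Thawed human PBMC, 200,000 per well in serum-containing medium, were preincubated 1 hr at 37 C with compound in 0.1% DMSO. GM-CSF at 5 ng/mL final was added for 20 minutes, then pSTAT5 and total STAT5 in lysates were measured by MSD immunoassay.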

The subject of experiment [2] is Tyk2-pSTAT4 (IL-12 induced pSTAT4). In words: IL-12 induced pSTAT4 in human PBMC. In kind it is cell-based. To be noted: 1.7 ng/mL IL-12, 30 minutes. In outline:
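pSTAT4 and total STAT4 quantified by MSD in cell lysates after 30 minutes of 1.7 ng/mL IL-12 stimulation. Beforehand, compound (0.1% DMSO final) sat 1 hr at 37 C on 200,000 thawed buffy-coat PBMC per well in serum-containing medium.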

For a further experiment, the target named is JAK2 (Homo sapiens (Human), UniProt O60674). In words: JAK2 radioactive kinase assay. To be noted: ATP 10 μM. Format: biochemical. In outline: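 Radiometric assay in Hepes pH 7.5, MgCl2, EGTA, Brij35, BSA, DTT, 1% DMSO, with 10 μM [33P]ATP, 120 min at room temp; P81 paper capture and counting. […]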
The target of a further experiment is TYK2 (Homo sapiens (Human), UniProt P29597). In words: Tyk2 radioactive kinase assay. In kind it is biochemical. To be noted: ATP 10 μM. A digest of the protocol:
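Recombinant human TYK2 (Invitrogen) was mixed with 20 μM peptide substrate in a buffer of 20 mM Hepes pH 7.5, 10 mM MgCl2, 1 mM EGTA, 0.02% Brij35, 0.02 mg/mL BSA, 0.1 mM […], 2 mM DTT and 1% DMSO, and compounds in DMSO were added. Adding ^33P-ATP (10 μM ATP) started the reaction, which ran 120 min at room temperature. Mixtures were then spotted onto P81 ion-exchange paper, washed thoroughly in 0.75% phosphoric acid, and counted for radioactivity.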

Each structure is given as a SMILES string.

Chain of JAK2 (O60674 whole entry): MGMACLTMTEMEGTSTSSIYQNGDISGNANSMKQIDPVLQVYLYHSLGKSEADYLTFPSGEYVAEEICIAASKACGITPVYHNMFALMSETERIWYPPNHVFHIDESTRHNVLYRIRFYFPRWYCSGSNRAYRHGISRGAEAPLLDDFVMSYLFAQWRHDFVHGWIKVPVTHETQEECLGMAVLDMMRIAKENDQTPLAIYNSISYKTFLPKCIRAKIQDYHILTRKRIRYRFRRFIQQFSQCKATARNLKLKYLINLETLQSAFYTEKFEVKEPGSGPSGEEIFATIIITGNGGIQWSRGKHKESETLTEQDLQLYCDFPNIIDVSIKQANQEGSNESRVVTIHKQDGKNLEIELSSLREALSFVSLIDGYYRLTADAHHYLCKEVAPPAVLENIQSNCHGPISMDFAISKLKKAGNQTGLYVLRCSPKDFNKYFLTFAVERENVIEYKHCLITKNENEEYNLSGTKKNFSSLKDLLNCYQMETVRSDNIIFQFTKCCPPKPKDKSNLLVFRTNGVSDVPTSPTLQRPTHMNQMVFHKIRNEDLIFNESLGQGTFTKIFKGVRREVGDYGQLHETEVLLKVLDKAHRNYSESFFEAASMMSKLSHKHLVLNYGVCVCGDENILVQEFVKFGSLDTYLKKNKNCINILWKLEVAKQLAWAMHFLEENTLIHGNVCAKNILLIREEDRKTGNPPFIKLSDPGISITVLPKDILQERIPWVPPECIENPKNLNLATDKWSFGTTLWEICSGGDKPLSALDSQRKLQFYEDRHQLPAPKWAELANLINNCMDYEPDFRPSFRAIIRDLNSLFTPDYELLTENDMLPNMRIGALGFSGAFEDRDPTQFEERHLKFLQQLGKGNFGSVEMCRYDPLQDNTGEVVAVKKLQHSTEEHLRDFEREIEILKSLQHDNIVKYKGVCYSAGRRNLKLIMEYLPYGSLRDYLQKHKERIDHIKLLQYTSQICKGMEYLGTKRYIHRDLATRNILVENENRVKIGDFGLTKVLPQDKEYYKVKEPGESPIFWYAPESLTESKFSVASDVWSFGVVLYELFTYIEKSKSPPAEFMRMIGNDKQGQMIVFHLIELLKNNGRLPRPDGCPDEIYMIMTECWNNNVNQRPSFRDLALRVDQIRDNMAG
Chain of TYK2 (P29597 whole entry): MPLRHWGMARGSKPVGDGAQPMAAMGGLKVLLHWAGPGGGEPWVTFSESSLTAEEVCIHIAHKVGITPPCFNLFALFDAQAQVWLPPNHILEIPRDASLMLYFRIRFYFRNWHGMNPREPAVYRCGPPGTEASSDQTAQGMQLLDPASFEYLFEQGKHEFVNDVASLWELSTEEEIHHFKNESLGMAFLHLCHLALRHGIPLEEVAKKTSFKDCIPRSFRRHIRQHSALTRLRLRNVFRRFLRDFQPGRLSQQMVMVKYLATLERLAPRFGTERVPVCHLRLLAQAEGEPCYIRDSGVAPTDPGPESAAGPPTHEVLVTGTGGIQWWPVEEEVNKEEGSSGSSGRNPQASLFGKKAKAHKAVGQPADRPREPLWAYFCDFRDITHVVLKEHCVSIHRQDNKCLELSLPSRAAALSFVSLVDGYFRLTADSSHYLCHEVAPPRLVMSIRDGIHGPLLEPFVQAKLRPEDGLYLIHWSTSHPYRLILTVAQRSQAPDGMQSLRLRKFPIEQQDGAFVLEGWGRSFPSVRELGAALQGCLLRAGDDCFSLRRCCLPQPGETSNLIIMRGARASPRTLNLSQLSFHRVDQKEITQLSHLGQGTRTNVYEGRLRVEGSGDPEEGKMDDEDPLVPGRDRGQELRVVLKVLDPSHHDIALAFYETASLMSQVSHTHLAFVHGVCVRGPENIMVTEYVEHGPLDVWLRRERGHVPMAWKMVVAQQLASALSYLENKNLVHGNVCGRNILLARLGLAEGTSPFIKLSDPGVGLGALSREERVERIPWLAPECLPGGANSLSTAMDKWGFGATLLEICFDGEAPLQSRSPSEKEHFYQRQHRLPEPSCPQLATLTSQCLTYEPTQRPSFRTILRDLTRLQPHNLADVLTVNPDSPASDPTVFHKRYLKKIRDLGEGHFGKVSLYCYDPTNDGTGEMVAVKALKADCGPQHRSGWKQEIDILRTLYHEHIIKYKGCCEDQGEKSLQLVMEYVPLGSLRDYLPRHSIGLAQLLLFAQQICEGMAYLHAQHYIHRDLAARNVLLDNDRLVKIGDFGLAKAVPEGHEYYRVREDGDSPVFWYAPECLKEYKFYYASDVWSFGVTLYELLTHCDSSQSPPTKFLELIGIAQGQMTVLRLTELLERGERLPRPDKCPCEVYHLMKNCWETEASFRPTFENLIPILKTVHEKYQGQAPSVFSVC

Regarding `[2H]C1([2H])C[C@](O)(C([2H])([2H])[2H])C([2H])([2H])N1c1ccn(-c2cc(-c3c(F)cccc3C#N)nc3c2C(=O)NC3)n1` [I-184, (R)-3-fluoro-2-(4-(3-(3-hydroxy-3-(methyl-d3)pyrrolidin-1-yl-2,2,5,5-d4)-1H-pyrazol-1-yl)-5-oxo-6,7-dihydro-5H-pyrrolo[3,4-b]pyridin-2-yl)benzonitrile], the EC50 (as a rule, the concentration at which the effect is half-maximal) is 100 to 2000 nM in experiment [1] and 30 to 100 nM in experiment [2] (Homo sapiens, PBMC, 0.5 h). The Ki on JAK2 and at TYK2 was 0.1 to 10 nM each time.
Turning to `C[C@@]1(O)CCCN(c2ccn(-c3cc(-c4c(F)cccc4C#N)nc4c3C(=O)NC4)n2)C1` [I-71, (R)-3-fluoro-2-(4-(3-(3-hydroxy-3-methylpiperidin-1-yl)-1H-pyrazol-1-yl)-5-oxo-6,7-dihydro-5H-pyrrolo[3,4-b]pyridin-2-yl)benzonitrile], the EC50 was 100 to 2000 nM in experiment [1] and 30 to 100 nM in experiment [2] (Homo sapiens, PBMC, 0.5 h). Moreover, the Ki (commonly the equilibrium dissociation constant of an inhibitor or competing ligand from its target) at JAK2 was 10 to 100 nM; on TYK2, 0.009 to 0.1 nM.
Regarding `[2H]C1([2H])N(c2ccn(-c3cc(-c4c(F)cccc4C#N)nc4c3C(=O)NC4)n2)C([2H])([2H])[C@](C)(O)C([2H])([2H])C1([2H])[2H]` [I-220, (R)-3-fluoro-2-(4-(3-(3-hydroxy-3-methylpiperidin-1-yl-2,2,4,4,5,5,6,6-d8)-1H-pyrazol-1-yl)-5-oxo-6,7-dihydro-5H-pyrrolo[3,4-b]pyridin-2-yl)benzonitrile], the EC50 is greater than 2000 nM in experiment [1] and 100 to 2000 nM in experiment [2] (Homo sapiens, PBMC, 0.5 h). The Ki at JAK2 is 10 to 100 nM; at TYK2, 0.1 to 10 nM.
As to `N#Cc1cccc(F)c1-c1cc(-n2ccc(N3CCOCC(O)C3)n2)c2c(n1)CNC2=O` (stereo not drawn) [I-121, 3-fluoro-2-(4-(3-(6-hydroxy-1,4-oxazepan-4-yl)-1H-pyrazol-1-yl)-5-oxo-6,7-dihydro-5H-pyrrolo[3,4-b]pyridin-2-yl)benzonitrile], the EC50 in experiment [1] is greater than 2000 nM; in experiment [2] (Homo sapiens, PBMC, 0.5 h), 30 to 100 nM. Further, the inhibition constant Ki at JAK2 is 10 to 100 nM; on TYK2, 0.1 to 10 nM.
As to `CN1CCN(c2ccn(-c3cc(-c4c(F)cccc4C#N)nc4c3C(=O)NC4)n2)CC1` [I-6, 3-fluoro-2-(4-(3-(4-methylpiperazin-1-yl)-1H-pyrazol-1-yl)-5-oxo-6,7-dihydro-5H-pyrrolo[3,4-b]pyridin-2-yl)benzonitrile], the EC50 was greater than 2000 nM in experiment [1] and 100 to 2000 nM in experiment [2] (Homo sapiens, PBMC, 0.5 h). The Ki on JAK2 and on TYK2 was 0.1 to 10 nM in each case.
On to `[2H]C1([2H])C[C@@](O)(C([2H])([2H])[2H])C([2H])([2H])N1c1ccn(-c2cc(-c3c(F)cccc3C#N)nc3c2C(=O)NC3)n1` [I-183, (S)-3-fluoro-2-(4-(3-(3-hydroxy-3-(methyl-d3)pyrrolidin-1-yl-2,2,5,5-d4)-1H-pyrazol-1-yl)-5-oxo-6,7-dihydro-5H-pyrrolo[3,4-b]pyridin-2-yl)benzonitrile], for which the concentration giving a half-maximal response (EC50) in experiment [1] fell in the range of 100 to 2000 nM; in experiment [2] (Homo sapiens, PBMC, 0.5 h), 30 to 100 nM. Moreover, the inhibition constant (Ki) at JAK2 and on TYK2 was 0.1 to 10 nM each time.
Regarding `N#Cc1cccc(F)c1-c1cc(-n2ccc(N3CCCC(C(N)=O)C3)n2)c2c(n1)CNC2=O` (stereo not drawn) [I-122, 1-(1-(2-(2-cyano-6-fluorophenyl)-5-oxo-6,7-dihydro-5H-pyrrolo[3,4-b]pyridin-4-yl)-1H-pyrazol-3-yl)piperidine-3-carboxamide], the 50% effective concentration (EC50) in experiment [1] was in the range of 100 to 2000 nM; in experiment [2] (Homo sapiens, PBMC, 0.5 h) it was 100 to 2000 nM. The inhibition constant Ki fell in the range of 10 to 100 nM on JAK2 and 0.1 to 10 nM on TYK2.
Take `[2H]C1([2H])NC(=O)c2c(-n3ccc(N4C([2H])([2H])C[C@@](O)(C([2H])([2H])[2H])C4([2H])[2H])n3)cc(-c3c(F)cccc3C#N)nc21` [I-206, (S)-3-fluoro-2-(4-(3-(3-hydroxy-3-(methyl-d3)pyrrolidin-1-yl-2,2,5,5-d4)-1H-pyrazol-1-yl)-5-oxo-6,7-dihydro-5H-pyrrolo[3,4-b]pyridin-2-yl-7,7-d2)benzonitrile]: the EC50 in experiment [1] was in the range of 100 to 2000 nM; in experiment [2] (Homo sapiens, PBMC, 0.5 h) it was 30 to 100 nM. In addition, the inhibitory constant (Ki) on JAK2 was 10 to 100 nM; on TYK2 it was 0.1 to 10 nM.
Taken in the same sequence, the figures for `CC(C)c1csc(-c2cc(-c3c(F)cccc3F)nc3c2C(=O)NC3)n1` [I-233, 2-(2,6-difluorophenyl)-4-(4-isopropylthiazol-2-yl)-6,7-dihydro-5H-pyrrolo[3,4-b]pyridin-5-one] were greater than 2000 nM, greater than 2000 nM, no less than 1000 nM and 10 to 100 nM.
In the case of `[2H]C([2H])([2H])C1(O)C([2H])([2H])N(c2ccn(-c3cc(-c4c(F)cccc4C#N)nc4c3C(=O)NC4)n2)C([2H])([2H])C1([2H])[2H]` (stereo not drawn) [I-196, 3-fluoro-2-(4-(3-(3-hydroxy-3-(methyl-d3)pyrrolidin-1-yl-2,2,4,4,5,5-d6)-1H-pyrazol-1-yl)-5-oxo-6,7-dihydro-5H-pyrrolo[3,4-b]pyridin-2-yl)benzonitrile], the concentration for a half-maximal effect (EC50) lay within 100 to 2000 nM in experiment [1] and 30 to 100 nM in experiment [2] (Homo sapiens, PBMC, 0.5 h). For the same compound, the inhibitory constant (Ki) at JAK2 and at TYK2 was 0.1 to 10 nM each time.
Consider `N#Cc1cccc(F)c1-c1cc(-n2ccc(N3CCC[C@@](N)(C(F)(F)F)C3)n2)c2c(n1)CNC2=O` [I-118, (S)-2-(4-(3-(3-amino-3-(trifluoromethyl)piperidin-1-yl)-1H-pyrazol-1-yl)-5-oxo-6,7-dihydro-5H-pyrrolo[3,4-b]pyridin-2-yl)-3-fluorobenzonitrile], for which the EC50 in experiment [1] is 100 to 2000 nM; in experiment [2] (Homo sapiens, PBMC, 0.5 h), 30 to 100 nM. Moreover, the inhibition constant (Ki) at JAK2 fell in the range of 0.1 to 10 nM; on TYK2, 0.009 to 0.1 nM.
Turning to `N#Cc1cccc(F)c1-c1cc(-n2ccc(N3CC[C@H](C#N)[C@@H](O)C3)n2)c2c(n1)CNC2=O` [I-215, (3R,4R)-1-(1-(2-(2-cyano-6-fluorophenyl)-5-oxo-6,7-dihydro-5H-pyrrolo[3,4-b]pyridin-4-yl)-1H-pyrazol-3-yl)-3-hydroxypiperidine-4-carbonitrile], the concentration giving a half-maximal response (EC50) in experiment [1] and in experiment [2] was 100 to 2000 nM in each case. The inhibition constant Ki was in the range of 10 to 100 nM on JAK2 and 0.1 to 10 nM at TYK2.
Take `N#Cc1cccc(F)c1-c1cc(-n2ccc(N3CCC[C@H](C(N)=O)C3)n2)c2c(n1)CNC2=O` [I-126, (S)-1-(1-(2-(2-cyano-6-fluorophenyl)-5-oxo-6,7-dihydro-5H-pyrrolo[3,4-b]pyridin-4-yl)-1H-pyrazol-3-yl)piperidine-3-carboxamide]: the EC50 in experiment [1] was 100 to 2000 nM; in experiment [2] (Homo sapiens, PBMC, 0.5 h), 100 to 2000 nM. The inhibition constant (Ki) lay within 10 to 100 nM on JAK2 and 0.1 to 10 nM at TYK2.
In the case of `N#Cc1cccc(F)c1-c1cc(-n2ccc(N3CCCC(C(=O)O)C3)n2)c2c(n1)CNC2=O` (stereo not drawn) [I-91, 1-(1-(2-(2-cyano-6-fluorophenyl)-5-oxo-6,7-dihydro-5H-pyrrolo[3,4-b]pyridin-4-yl)-1H-pyrazol-3-yl)piperidine-3-carboxylic acid], the EC50 is greater than 2000 nM in experiment [1] and 100 to 2000 nM in experiment [2] (Homo sapiens, PBMC, 0.5 h). Also, the inhibition constant Ki on JAK2 was in the range of 10 to 100 nM; on TYK2 it was 0.1 to 10 nM.
The like results for `CC1(O)CCCN(c2ccn(-c3cc(-c4c(F)cccc4C#N)nc4c3C(=O)NC4)n2)C1` (stereo not drawn) [I-62, 3-fluoro-2-(4-(3-(3-hydroxy-3-methylpiperidin-1-yl)-1H-pyrazol-1-yl)-5-oxo-6,7-dihydro-5H-pyrrolo[3,4-b]pyridin-2-yl)benzonitrile] were, in that order, 100 to 2000 nM, 100 to 2000 nM, 10 to 100 nM and 0.009 to 0.1 nM.
For `N#Cc1cccc(F)c1-c1cc(-n2ccc(N3CC[C@](O)(C(=O)N4CCCC4)C3)n2)c2c(n1)CNC2=O` [I-198, (R)-3-fluoro-2-(4-(3-(3-hydroxy-3-(pyrrolidine-1-carbonyl)-pyrrolidin-1-yl)-1H-pyrazol-1-yl)-5-oxo-6,7-dihydro-5H-pyrrolo[3,4-b]pyridin-2-yl)benzonitrile], the EC50 was greater than 2000 nM in experiment [1] and 100 to 2000 nM in experiment [2] (Homo sapiens, PBMC, 0.5 h). For the same compound, the Ki fell in the range of 10 to 100 nM at JAK2 and 0.1 to 10 nM on TYK2.
Taken in the same sequence, the figures for `N#Cc1cccc(F)c1-c1cc(-n2ccc(N3CCC4(C3)OCCO4)n2)c2c(n1)CNC2=O` [I-100, 2-(4-(3-(1,4-dioxa-7-azaspiro[4.4]nonan-7-yl)-1H-pyrazol-1-yl)-5-oxo-6,7-dihydro-5H-pyrrolo[3,4-b]pyridin-2-yl)-3-fluorobenzonitrile] were 100 to 2000 nM, 30 to 100 nM, 0.1 to 10 nM and 0.009 to 0.1 nM.
The like results for `C[C@]1(O)CCCN(c2ccn(-c3cc(-c4c(F)cccc4C#N)nc4c3C(=O)NC4)n2)C1` [I-72, (S)-3-fluoro-2-(4-(3-(3-hydroxy-3-methylpiperidin-1-yl)-1H-pyrazol-1-yl)-5-oxo-6,7-dihydro-5H-pyrrolo[3,4-b]pyridin-2-yl)benzonitrile] were, in that order, greater than 2000 nM, 100 to 2000 nM, 0.1 to 10 nM and 0.1 to 10 nM.
